Reference: US20090081786A1, “Peptide sequences for modulation of protein kinase C” (priority 2006, published 2009)

What was measured:
annexin V/δ-PKC complex = assay: co-immunoprecipitation of annexin V/δ-PKC complex from CHO cells; assay type: cell-based, hamster
Procedure: The complexes were immunoprecipitated with anti-δ-PKC antibodies and probed for the presence of annexin V at the combined molecular weight of about 110 kD.
CHO-K1 cells (available through the ATCC) were grown in F-12 (HAM) nutrient mixture supplemented with GLUTAMAX, 10% fetal bovine serum, and antibiotics (100 units/ml penicillin and […] streptomycin sulfate, all from Invitrogen Corp.). The cells were cultured at 37° C. under 5% CO2. At 48 hours prior to the study, the cells were serum starved. They were stimulated with 10 nM phorbol 12-myristate 13-acetate (PMA) (available through LC Laboratories) or with 5 mM H2O2 (available through Sigma Chemical Corp.) for the indicated duration ranging from about 30 seconds to about 5 minutes, a technique well-known to one of skill in the art. The cells were washed with cold PBS, and homogenized on ice with trituration in homogenization buffer (20 mM Tris pH 7.4, 2 mM EDTA, 10 mM EGTA, 0.25M sucrose, 12 mM β-mercaptoethanol, protease inhibitor cocktail (available through Sigma Chemical Corp)), 0.1% TRITON X-100, and 1% formaldehyde.
It was observed that the 0.1% TRITON extracts all of the translocatable PKC from the cell. After 30 min at 4° C., the lysates were quenched with 0.14M glycine for 20 min at 4° C., and the samples were spun at 14K rpm at 4° C. The supernatant was incubated with 1 μg anti-δ-PKC antibody (available through Santa Cruz Biotechnology) for 1 hour, followed by exposure to protein-G beads (available through Invitrogen Corp.) for 3 hours at 4° C. The beads were then washed with wash buffer (20 mM Tris pH 7.5, 2 mM EDTA, 100 mM NaCl, 12 mM β-mercaptoethanol, 0.1% TRITON), and separated on 7.5% SDS-PAGE, transferred to nitrocellulose, and probed with anti-annexin V (available through Santa Cruz Biotechnology), followed by visualization using an enhanced chemiluminescence (ECL) method.

δ-PKC/annexin V = δ-PKC/annexin V binding ELISA assay
δ-PKC [1] = assay: PMA-induced translocation of δ-PKC from soluble to particulate fraction in CHO cells; assay type: cell-based, hamster; details: 1 μM peptide pretreatment, 5 minutes of PMA stimulation
Procedure: (§1) The CHO cells of Example 1 were fractionated, stimulated, and washed with cold PBS, scraped in homogenization buffer, and spun at 100,000 g for 30 min at 4° C., resulting in the soluble fraction. The pellet was then resuspended in a homogenization buffer with 1% TRITON X-100, and spun under the same conditions. Where applicable, the cells were pre-incubated with 1 μM peptide for 15 minutes prior to stimulation. The samples were then analyzed using a Western blot, and the loading was corrected for protein concentration using an internal control such as actin.

ε-PKC = assay: PMA-induced translocation of ε-PKC in CHO cells; assay type: cell-based, hamster; details: peptide pretreatment
Procedure: as §1

annexin V = biological target: T1, annexin V (Homo sapiens, UniProt P08758); assay: overlay binding assay on immobilized annexin V; details: immobilized annexin V on nitrocellulose, overlay 37° C. 30 min, Western blotting
T1 sequence (P08758 1-320): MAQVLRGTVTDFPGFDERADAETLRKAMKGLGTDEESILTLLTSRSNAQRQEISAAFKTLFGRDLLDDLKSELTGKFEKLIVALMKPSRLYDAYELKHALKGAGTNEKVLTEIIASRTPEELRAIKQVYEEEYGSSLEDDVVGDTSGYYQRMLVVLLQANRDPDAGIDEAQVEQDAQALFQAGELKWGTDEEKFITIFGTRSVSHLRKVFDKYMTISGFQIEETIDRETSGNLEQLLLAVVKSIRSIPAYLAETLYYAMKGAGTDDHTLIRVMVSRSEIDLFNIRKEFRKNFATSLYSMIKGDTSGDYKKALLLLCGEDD
Procedure: A binding assay was performed in vitro, using an immobilized annexin V with the δ-PKC, δ-V1 (SEQ ID NO:18) (the C2 domain of δ-PKC), δ-V5 (SEQ ID NO:19), and ε-V1 (SEQ ID NO:20) peptides. These domains are recognized in the art as participating in protein-protein interactions.
10 μg of the annexin V was separated on 12% SDS-PAGE gel and transferred to nitrocellulose, and then cut into strips. The strips were incubated with blocking buffer (50 mM Tris pH 7.5, 200 mM NaCl, 3% bovine serum albumin, 0.1% PEG20). The strips were then incubated in overlay buffer (50 mM Tris pH 7.5, 200 mM NaCl, 1% PEG20, 12 mM β-mercaptoethanol) in the presence where appropriate of 30 μg crude bacterial cell lysate containing fusion proteins of myelin basic protein (MBP)-delta V1 PKC (MBP-δV1), glutathione-S-transferase-delta V5 PKC (GST-δV5), and full length sequences of δ-PKC or rat purified ε-PKC (SEQ ID NO:21) at 37° C. for 30 min. The strips where then washed with wash buffer (50 mM Tris pH 7.5, 200 mM NaCl, 0.1% PEG20, 12 mM β-mercaptoethanol), and then incubated with fixative (0.2% formaldehyde in PBS) and neutralizing solution (0.2M glycine in PBS) at room temperature 20 min each. After washing with buffer, the strips were probed with antibodies according to the overlay protein, and resulting bands were visualized using ECL Western blotting.

isolated rat hearts = assay: ex vivo model of ischemia and reperfusion in isolated rat hearts; details: 1 μM
Procedure: FIG. 6C compares the infarct sizes that were measured on both sides of the tissue slices and averaged. […] In FIG. 6D, creatine phosphokinase (CPK) release was measured in the heart perfusate during the reperfusion.

δ-PKC [2] = assay: real-time confocal imaging of YFP-δPKC translocation in CHO cells; assay type: cell-based, hamster; details: 10 μM pretreatment for 30 minutes, 100 nM PMA, vs untreated
Procedure: CHO cells were grown on chambered #1 Borosilicate coverglass (Lab-Tek), transfected at 50% confluency using Fugene 6 (Roche), according to the manufacturer's instructions, with CFP-annexin V and YFP-δPKC cloned into the pECFP-C1 and pEYFP-C1 vectors, respectively (Clontech). The cells were serum starved for 24 hours. Real-time confocal imaging was conducted on a spinning disk Nipkow confocal microscope, and the cells were viewed using an inverted Olympus IX70 microscope with a 40× oil immersion Olympus objective (1.35 NA). Images were acquired using a CCD camera (Hamamatsu) with 2×2 pixel binning. […]
Fluorescence intensity was measured using METAMORPH data analysis software (Universal Imaging). To monitor the translocation of the PKC and the increases in FRET signal, a small region of interest was selected from each cell and fluorescence intensity values were graphed against time and normalized to the initial fluorescence. FRET was calculated using a formula that corrects for bleed-through and donor concentration: FRET=(I(442-530)-αI(442-480)-βI(515-530))/I(442-480). The α and β coefficients were calculated from singly transfected cells, where α=I(442-530)/I(442-480)=47.6% of CFP bleed-through into the YFP channel, and β=I(442-530)/I(515-530)=14.4% of YFP excitation from the CFP channel.

Question: For `CCCCCCCCCCCCCC(=O)O[C@@H]1[C@@H](C)[C@@]2(O)[C@@H](C=C(CO)C[C@]3(O)C(=O)C(C)=C[C@@H]23)[C@@H]2C(C)(C)[C@]12OC(C)=O` [PMA, phorbol 12-myristate 13-acetate], which “increase in the amount of annexin V/δ-PKC complex” value (annexin V/δ-PKC complex; 10 nm PMA, within the first 0.5 minutes of treatment) is on record?
Answer: Its value is about 4 fold.

Question: With “LQANRDPD [pAnxV, annexin V-derived peptide, annexin V residues 157-164, conjugated to TAT47-57 carrier peptide]” as the compound, how does the “δ-PKC/annexin V binding in ELISA” value (δ-PKC/annexin V) read?
Answer: The value was “inhibited”.

Question: And the “δ-PKC/annexin V complex formation (immunoprecipitation)” value (annexin V/δ-PKC complex; peptide pretreatment)?
Answer: Its value is “blocked”.

Question: And the “PMA-induced translocation of δ-PKC to the particulate fraction” value (δ-PKC [1])?
Answer: Its value is “blocked”.

Question: What about the “PMA-induced translocation of ε-PKC” value (ε-PKC) of the same compound?
Answer: Its value is “neither peptide affected”.

Question: How did the “binding to annexin V” value (annexin V) turn out when “δ-V5: V5 domain of δ-PKC (SEQ ID NO:19), used as glutathione-S-transferase fusion (PKVKSPSDYSNFDPEFLNEKPQLSFSDKNLIDSMDQEAFHGFSFVNPKFEQFLDI; left off: a dimerising Fc or GST)” was run?
Answer: The value was “bind to the annexin V”.

Question: Which “δ-PKC/annexin V binding in ELISA” value (δ-PKC/annexin V) does the source give for “EpAnxV: pAnxV in which the arginine in annexin V was replaced with the glutamate found in δ-PKC (SEQ ID NO:33) (YGRKKRRQRRRCCLQANEDPD; listed as Homo sapiens)” here?
Answer: The value was “no significant effect”.

Question: And the “reduction of infarct size” value (isolated rat hearts; 10 minutes prior to 30-minute no-flow ischemia and 10 minutes at onset of 60 minutes reperfusion, TTC staining)?
Answer: The value was “had no effect”.

Question: What about the “reduction in necrosis (creatine phosphokinase release in heart perfusate)” value (isolated rat hearts; CPK measured during reperfusion) of the same compound?
Answer: Its value is “did not show any statistical difference from the control heart”.

Question: And the “ischemia-induced δ-PKC-mediated damage to the heart” value (isolated rat hearts; isolated rat hearts)?
Answer: The value was “did not inhibit”.

Question: And the “PMA-induced translocation of ε-PKC” value (ε-PKC)?
Answer: The value was “neither peptide affected”.

Question: For `OO` [H2O2], which “association between annexin V and δ-PKC” value (annexin V/δ-PKC complex; H2O2 5 mM, 0.5-1 minute treatment) is on record?
Answer: Its value is “transient association”.

Question: With `COC(=O)Nc1nc2ccc(C(=O)c3cccs3)cc2[nH]1` [nocodazole] as the compound, how does the “translocation profile of overexpressed δ-PKC” value (δ-PKC [2]) read?
Answer: Its value is “did not alter the translocation profile”.
